For orientation: viability means a read-out of living cells in per cent, often relative to untreated cells.

Series [1] has as its system NSC-34 cells expressing EGFP-WT-SOD1. Put plainly: Relative cell viability of transfected NSC-34 cells. The class given is cell-based, mouse. The settings on record: for Viability %: WT, 48 h, replicates. The procedure:
(§1) Transfected NSC-34 cells were plated out into 96-well plates and left overnight. […] Cells were then fixed using 4% (w/v) paraformaldehyde in 1×PBS for 20 min. Plates for imaging were then processed as previously described with some changes. Cells were imaged using a DMi8 epifluorescent microscope (Leica, Germany) fitted with a Mercury Arc Lamp, a 10× 0.25NA (CAT NO) air objective and an automated stage. A software-based autofocus strategy was utilized to focus on the GFP signal within cells, with a subsequent image being taken in the DAPI channel to view Hoescht-stained nuclei. Relative focus correction was applied between channels to offset emission wavelength effects to the focal plane. Following image acquisition, images were corrected for illumination variation via a background method and processed using a combination of FIJI [66], StarDist, CellProfiler, and CellProfiler Analyst as previously described.
(§2) Image set data taken from the previous inclusion formation assay were used to examine both relative cell viability and relative levels of SOD1-EGFP. To determine relative viability, we extracted the total number of transfected cells in each treatment group and normalized the values to the untreated group to determine the relative number of cells at assay endpoint.

Assay in series [2]: as above
The class given is cell-based, mouse. The settings on record: mouse, 48 h, replicates. As to the method: as §1, §2

Series [3] relates to NSC-34 cells expressing EGFP-G93A. The description is as above. The class given is cell-based, mouse. The settings on record: for Viability %: G93A, 48 h, replicates. As to the method: as §1, §2
In series [4] the test system is wild-type SOD1, SOD1^A4V, SOD1^G93A, SOD1^H46R, and SOD1^G85R. In words: Mass spectrometry assay for intact protein cross-linking in vitro. The class given is binding, human. The procedure:
We employed a mass spectrometry (MS) assay for intact protein cross-linking. In this assay, any non-covalent (i.e., native) dimer is dissociated by a combination of acidic, organic media and MS source conditions.
Wild-type SOD1, SOD1^A4V, SOD1^G93A, SOD1^H46R, and SOD1^G85R stock solutions were diluted to 40 μm in 10 mM ammonium acetate (pH 7.4). […] Prior to infusion, samples were diluted to 1 μm in 50:50 acetonitrile:water, with 0.1% formic acid. During analysis, 32 scans were acquired in positive mode and averaged. Funnel 1 and skimmer 1 were kept around 150 V and 20 V, respectively, and funnel RF amplitude was held at 60.0 Vpp.

For series [5], the system named is EGFP-labeled SOD1 (wild-type, fALS variants, Cys111Ser, F50E/G51E). In words: Immunoblotting for SOD1-EGFP cross-linking in NSC-34 cells. Type of series: cell-based, mouse NSC-34 cells. The procedure:
(§3) Mouse neuroblastoma/motor neuron hybrid cells (NSC-34) were cultured and maintained as previously described. Briefly, NSC-34 cells were cultured in Dulbecco’s Modified Eagle’s Medium with F12 supplement (DMEM/F12, Invitrogen Australia) containing 10% (v/v) heat-inactivated fetal bovine serum (FBS, Bovogen Biologicals, Australia) and 2 mM L-Glutamine (Invitrogen, Australia). Cells were passaged using 0.25% trypsin, 0.02% EDTA (Invitrogen, Australia). Cells were maintained within humidified incubators at 37°C with 5% CO2.
(§4) To transfect NSC-34 cells, they were first plated out to 40% confluency in either 6-well or 12-well tissue culture-treated plates and cultured for 24 h. Following this, TransIT-X2 reagent (Mirus Bio, USA) was used according to the manufacturer’s instructions to transfect NSC-34’s (1 μg DNA per well for 12-well plates, 2.5 μg per well for a 6-well plate). Cells were then incubated for 8 h prior to replating for experiments into other plates or chambers.
(§5) Transfected NSC-34 cells were plated out into 12-well plates and left overnight. […] Cells were then harvested via aspiration and pelleted (300 × g). Lysis and immunoblots were carried out as previously described. Briefly, cell pellets were lysed in ice-cold lysis buffer containing protease inhibitors (Thermo Fisher, USA) and N-ethylmaleimide (NEM) at a final concentration of 1 mg/mL. Protein concentration was measured by DC assay (BioRad, Australia) and samples were denatured in SDS-sample buffer containing 40 mM NEM at 90°C for 5 min. Lysates were loaded into 26-lane stain-free gels (BioRad, Australia) and electrophoresed. Proteins were transferred to 0.2 μm PVDF membranes for 1 h at 4°C. Membranes were blocked in 5% skim milk in TBST for 1 h prior to addition to primary antibody which as a rabbit anti-GFP antibody (ab290, 1:5,000, Abcam USA) and incubated overnight at 4°C. Membranes were washed 3× and then incubated for 1 h at room temperature in secondary antibody (goat anti-rabbit HRP conjugate at 1:5,000 (catalog no.: P0448; Dako). Membranes were then washed 3× prior to developing with SuperSignal West Pico Plus substrate (Thermo Fisher Scientific).
For orientation: Immunoblotting shows a protein as a band on a membrane.

The target of series [6] is T1, EGFP-labeled SOD1 (wild-type, fALS variants, Cys111Ser, F50E/G51E) (Homo sapiens, UniProt P00441, C112S).
T1 construct: expressed in transfected cells; host or cells: NSC-34 mouse neuroblastoma/motor neuron hybrid cells
T1 sequence (P00441 2-154 C112S): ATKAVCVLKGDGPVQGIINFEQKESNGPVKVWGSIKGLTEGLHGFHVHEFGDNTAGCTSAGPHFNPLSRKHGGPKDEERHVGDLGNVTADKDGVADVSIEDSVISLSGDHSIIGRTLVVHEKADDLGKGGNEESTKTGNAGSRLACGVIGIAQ
The description is as above. Type of series: cell-based, mouse NSC-34 cells. The settings on record: 20 μm S-XL6. As to the method: as §3, §4, §5

Series [7] addresses T2, EGFP-labeled SOD1 (wild-type, fALS variants, Cys111Ser, F50E/G51E) (Homo sapiens, UniProt P00441, F51E/G52E).
T2 construct: expressed in transfected cells; host or cells: NSC-34 mouse neuroblastoma/motor neuron hybrid cells
The series is described as above. Type of series: cell-based, mouse NSC-34 cells. The settings on record: 20 μm S-XL6. As to the method:
as §3, §4, §5

SMILES strings stand for the structures. Values joined by “and” are separate entries in the source; they are usually repeats but may differ in a detail not shown here. Equal values may be shown once. “Also recorded” adds a separate entry of the source.

T2 sequence (P00441 2-154 F51E/G52E): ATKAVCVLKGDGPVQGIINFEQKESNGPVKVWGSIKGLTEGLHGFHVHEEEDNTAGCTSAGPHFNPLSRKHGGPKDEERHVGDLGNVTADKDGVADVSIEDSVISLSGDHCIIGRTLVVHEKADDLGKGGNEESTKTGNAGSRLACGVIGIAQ

For `[O-][S+]1CCCCS1` (stereo not drawn) [S-XL6, 1,2-dithiane-1-oxide], the “viability of cells expressing EGFP-labeled wild-type SOD1” value in series [1] is listed as “did not affect the viability”. Further, the Viability % in series [1] (5 uM) was 118.019% and 98.8542% and 94.2887% and 103.364% and 96.0765%; in series [1] (10 uM), 120.286% and 102.188% and 99.0654% and 102.243% and 98.2897%; in series [1] (20 uM), 91.25% and 91.5888% and 93.8838% and 89.0342%; in series [3] (5 uM) it was 106.323% and 98.5697% and 106.015% and 108.827%; in series [3] (10 uM), 107.355% and 99.404% and 108.897% and 105.562%; in series [3] (20 uM) it was 94.1936% and 84.8629% and 91.604% and 88.2709%. Besides, the viability at 48 h, 5 µM in series [2] (NSC-34 cells expressing EGFP-G93A, G93A, 5 uM) worked out at 96%. The viability at 48 h, 10 µM in series [2] (NSC-34 cells expressing EGFP-G93A, G93A, 10 uM) is 97.2%. In addition, the viability at 48 h, 20 µM was 83% in series [2] (NSC-34 cells expressing EGFP-G93A, G93A) and 109% in series [2] (NSC-34 cells expressing EGFP-WT-SOD1, WT). In series [3], the “survival/viability of cells expressing EGFP-labeled G93A” value was “did not affect”. Moreover, in series [4], the “dead-end modifications of SOD1” value was “not observed”. For the same molecule, the “conversion of SOD1 monomer to cross-linked dimer” value in series [4] (denaturing MS conditions) is “full conversion of monomer to dimer”. For the same molecule, the “cross-linking yield compared to leading cyclic thiosulfinates (Comp 2–5)” value in series [5] is reported as “highest cross-linking yield; also recorded: most effective compound”. Also, the “off-product with EGFP-wild-type and EGFP-D90A SOD1” value in series [5] is “high-molecular weight species consistent with trimeric SOD1”. For the same molecule, the “cross-linking of the Cys111Ser variant” value in series [6] is recorded as “lack of cross-linking”. For the same molecule, in series [7], the “binding to the constitutively monomeric variant (F50E/G51E)” value is reported as “lack of binding”.
